Results on one compound are retold here after ChEMBL document CHEMBL5727827, “PD-1/PD-L1 inhibitors” (2020).

The structures appear in SMILES notation.

The target in the experiment is Programmed cell death protein 1/Programmed cell death 1 ligand 1 (Homo sapiens, UniProt Q15116+Q9NZQ7). Briefly: Binding of the protein pairs is measured using a bead based Amplified Luminescent Proximity Homogeneous Assay (ALPHA) platform. Binding of each protein pair results in proximity of the donor and acceptor beads which leads to an increase in ALPHA signal. […] Assays are performed in 25 mM Hepes (pH 7.4), 150 mM NaCl, 3.4 mM EDTA, 0.005% Tween 20, and 0.01% BSA. […] After an assay reaction time of 60 minutes at 25° C., binding was measured with addition of 20 μg/mL ALPHA assay acceptor beads (anti-His coated) and 20 µg/mL ALPHA assay donor beads (streptavidin coated). IC50 values were calculated from the fit of the dose-response curves to a four-parameter equation. The class given is protein-complex assay.
Chain of Programmed cell death protein 1/Programmed cell death 1 ligand 1 (Q15116 whole entry): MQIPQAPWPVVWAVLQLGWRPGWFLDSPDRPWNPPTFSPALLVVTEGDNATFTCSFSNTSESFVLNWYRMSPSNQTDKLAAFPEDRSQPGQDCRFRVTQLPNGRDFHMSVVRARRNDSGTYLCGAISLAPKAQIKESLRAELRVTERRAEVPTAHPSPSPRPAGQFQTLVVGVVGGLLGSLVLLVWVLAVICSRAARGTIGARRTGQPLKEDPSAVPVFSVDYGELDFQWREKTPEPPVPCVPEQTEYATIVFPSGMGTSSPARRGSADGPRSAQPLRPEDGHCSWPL
Chain of Programmed cell death protein 1/Programmed cell death 1 ligand 1 (Q9NZQ7 whole entry): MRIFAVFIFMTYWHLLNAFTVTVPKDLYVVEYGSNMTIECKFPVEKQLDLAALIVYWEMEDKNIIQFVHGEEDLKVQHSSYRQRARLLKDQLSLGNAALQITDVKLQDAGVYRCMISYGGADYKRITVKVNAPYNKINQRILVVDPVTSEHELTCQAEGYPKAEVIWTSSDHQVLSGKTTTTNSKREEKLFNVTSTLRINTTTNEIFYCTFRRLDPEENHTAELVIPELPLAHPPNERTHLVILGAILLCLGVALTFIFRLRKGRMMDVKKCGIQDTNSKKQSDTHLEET

With `COc1nc(-c2cccc(-c3cccc(-c4cnc(CN5CC(C(C)(C)O)C5)c(OC)n4)c3Cl)c2Cl)cnc1CN`, the IC50 – broadly, the concentration that inhibits the measured activity by half – was 0.346 nM.
